Reference: ChEMBL document CHEMBL1944584 (Bioorg Med Chem Lett, 2012)
Activity calls are given as the source filed them. No cut-off for these calls is given here.

What was measured:
Assay type in all cases: cell-based
[1] = molecular target: T1, Neuronal acetylcholine receptor; alpha4/beta2 (Homo sapiens) (UniProt P17787+P43681); assay: Binding affinity to human alpha4beta2 nAChR in HEK cells at 0.21 nM after 5 hrs by gamma counting in the presence of (+/-)-bupropion; settings: HEK293, tested as the 125I-labelled form
[2] = molecular target: T1, Neuronal acetylcholine receptor; alpha4/beta2 (Homo sapiens); assay: Binding affinity to human alpha4beta2 nAChR in HEK cells at 78 nM after 2 hrs measured 10 mins post-irradiation by autoradiography in the presence of 160 uM (+/-)-bupropion; settings: HEK293, tested as the 125I-labelled form
[3] = molecular target: T2, Sodium-dependent dopamine transporter (Homo sapiens, UniProt Q01959); assay: Binding affinity to human His6-DAT expressed in LLCPK1 cells at 10 nM after 1.5 hrs measured 2 mins post-irradiation by SDS-PAGE/autoradiography; settings: LLC-PK1, tested as the 125I-labelled form
[4] = molecular target: T2, Sodium-dependent dopamine transporter; assay: Displacement of [3H]WIN-35,428 from human DAT expressed in N2A cells after 15 mins by photoaffinity labeling
[5] = molecular target: T2, Sodium-dependent dopamine transporter; assay: Binding affinity to human His6-DAT expressed in LLCPK1 cells at 10 nM after 1.5 hrs measured 2 mins post-irradiation by autoradiography in the presence of (+/-)-bupropion; settings: LLC-PK1, tested as the 125I-labelled form
[6] = molecular target: T2, Sodium-dependent dopamine transporter; assay: Binding affinity to human His6-DAT expressed in LLCPK1 cells at 10 nM after 1.5 hrs measured 2 mins post-irradiation by autoradiography in the presence of (+/-)-cocaine; settings: LLC-PK1, tested as the 125I-labelled form

T2 sequence (Q01959 whole entry): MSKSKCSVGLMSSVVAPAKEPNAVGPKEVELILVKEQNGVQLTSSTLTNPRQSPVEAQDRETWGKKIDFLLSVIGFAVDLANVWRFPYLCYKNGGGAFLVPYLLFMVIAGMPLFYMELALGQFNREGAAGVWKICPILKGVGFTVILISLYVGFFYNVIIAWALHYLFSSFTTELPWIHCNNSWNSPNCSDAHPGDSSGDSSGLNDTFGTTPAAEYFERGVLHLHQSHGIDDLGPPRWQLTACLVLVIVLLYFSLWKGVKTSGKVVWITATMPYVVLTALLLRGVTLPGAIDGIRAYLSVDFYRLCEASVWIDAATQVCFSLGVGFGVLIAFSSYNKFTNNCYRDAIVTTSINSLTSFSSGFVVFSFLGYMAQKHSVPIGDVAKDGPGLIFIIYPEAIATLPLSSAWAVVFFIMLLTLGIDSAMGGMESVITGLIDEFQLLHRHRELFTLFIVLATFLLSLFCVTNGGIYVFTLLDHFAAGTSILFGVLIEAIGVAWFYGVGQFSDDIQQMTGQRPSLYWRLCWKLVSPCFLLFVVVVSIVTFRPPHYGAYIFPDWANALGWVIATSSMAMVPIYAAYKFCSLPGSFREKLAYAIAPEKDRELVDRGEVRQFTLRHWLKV

CC(NC(C)(C)C)C(=O)c1ccc(N=[N+]=[N-])c(I)c1 (racemic)
Activity [1]: inactive | Activity [2]: inactive | Activity [3]: Active | Ki [4]: 3.07 µM | Activity [5]: inactive | Activity [6]: inactive
